Reference: paper PMC11915509, “Small molecule inhibitors of hnRNPA2B1–RNA interactions reveal a predictable sorting of RNA subsets into extracellular vesicles” (Nucleic Acids Research, 2025)
Where “and” joins values, the source holds several entries; their conditions need not be identical. Equal entries are not always repeated.

What was measured:
EXO-motif RNA probe = test: Absorbance scan of compounds mixed with EXO-motif RNA; type: binding; details: EXO-motif probe, 1:5 micromolar ratio with compound, room temperature
Protocol: (§1) Five μM RNA EXO motif were mixed with 25 μM compounds in AlphaBuffer (25 mM HEPES, pH 7.4, 100 mM NaCl, 0.01% BSA) to a final volume of 20 μl. Absorbance spectrum (200–530 nm) was measured using Tecan Spark® microplate reader with a NanoQuant plate at room temperature. In fluorescence indicator displacement (FID), a 2× final concentration of Midori green advanced (Resnova) was added to the samples and the melting curve measured using Bio-Rad CFX96™ System from 30°C to 90°C.

[1] = biological target: T1, hnRNPA2B1-EXOmotif interaction (Homo sapiens, UniProt P22626); test: AlphaScreen dose-response, inhibition of hnRNPA2B1-EXOmotif RNA interaction; type: binding; details: AlphaScreen dose-response with RNA EXOmotif, one site fitting
T1 construct: purified a human full-length, GST-tagged protein expressed in Escherichia coli cells; made in house; host or cells: E. coli BL21 (DE3)
T1 sequence (P22626 whole entry): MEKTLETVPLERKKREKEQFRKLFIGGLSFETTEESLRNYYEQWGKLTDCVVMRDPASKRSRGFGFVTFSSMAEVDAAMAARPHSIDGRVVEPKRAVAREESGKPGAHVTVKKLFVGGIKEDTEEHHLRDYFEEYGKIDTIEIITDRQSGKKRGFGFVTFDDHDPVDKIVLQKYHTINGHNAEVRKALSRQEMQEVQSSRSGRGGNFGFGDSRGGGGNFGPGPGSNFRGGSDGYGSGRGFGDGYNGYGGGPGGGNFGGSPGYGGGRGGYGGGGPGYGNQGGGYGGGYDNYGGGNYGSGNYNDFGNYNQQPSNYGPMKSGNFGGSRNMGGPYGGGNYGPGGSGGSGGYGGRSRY
Protocol: The assays were performed in OptiPlate-384-well plates (PerkinElmer, 6007299) in 20 μl final volume. The ligands were diluted in AlphaBuffer [25 mM HEPES, pH 7.4, 100 mM NaCl, 0.01% bovine serum albumin (BSA)] and tested using AlphaScreen GST Detection Kit (PerkinElmer, 6760603C). […] For the reactions, 4 μl of the RNA probes were first added to the plate, then 16 μl of a mix containing all the other components was added, and the plate was incubated at room temperature for 1 h in the dark.
The high-throughput drug screening was performed in a total volume of 20 μl using 17 nM of RNA EXO motif (chosen below the hooking point), 30 nM GST-hnRNPA2B1, and 250 nM of compounds belonging to mass spectrometry (MS) Spectrum Collection library (MicroSource, 2000 compounds). Compounds were dispensed into white 384-well Optiplates (PerkinElmer) using Echo 650 acoustic dispenser (Beckman Coulter) followed by the addition of protein in Alpha Buffer using the EL460 dispenser (BioTek). After 15 min of incubation, RNA probes were added by Echo 650 acoustic dispenser, while Donor and Acceptor beads from the GST detection kit (Perkin Elmer) were dispensed by EL460 instrument. Following 60 min of incubation, Alpha signal was detected using Enspire plate reader instrument (PerkinElmer). The raw Alpha counts were normalized to Dimethyl sulfoxide (DMSO)-treated controls within every plate.

HEK293T cells = test: Cell viability dose response, HEK293T; type: cell-based, human; details: 24 hr
Protocol: (§2) Supplementary Figure S6. Cell viability upon treatment with Hematein. Cells were exposed to increasing concentrations of Hematein or DMSO (control vehicle) for 24 hr under standard growth conditions. […] In both cases a range of drug tolerance was observed before the drop of viability over 10 µM. The graph indicates mean and SD of two independent experiments.

[2] = tested on: hnRNPA2B1 and TDP43 bound RNA (miR-221, miR-1910); test: RNA immunoprecipitation (RIP) on cytoplasmic lysates of treated NSC34 cells; type: cell-based, mouse; details: 6 h treatment, anti-hnRNPA2B1 and anti-TDP43 RIP
Protocol: Flow cytometry of a fraction of RNA immunoprecipitation (RIP) experiments, consisting of RNA/protein-antibody-bead complexes, was performed on the same instrument using a sequential gating with Streptavidin beads alone ± antibodies (this signal corresponded to background). Pyronin Y (PY) was used at a final concentration of 50 ng/ml and the PY-positive events recorded for 1 min.
Approximately 2 × 10^6 cells were used for each RIP experiment, performed as already described, without cross-linking steps and using 0.5 μg/ml of antibodies. Beads-precipitated samples were divided for immunoblotting or TRIzol-based RNA isolation. Densitometric analysis obtained using Image J software (v.1.54). miRNA TaqMan probes were bought from Thermo Fisher with the following codes: miR-221 (477 981), miR-1910 (479 581), and miR-126 (4 427 975).

NF-kB = NF-kB luciferase reporter in EV-recipient HEK293T cells; type: cell-based, human; details: EVs from hnRNPA2B1 OE HEK293T donor cells treated 5 μM 6 h; recipient cells 8 h
Source text: To obtain some preliminary information on the bioactivity of identified compounds in relation to EV function, we explored the potential activation NF-kB in EV-recipient cells as a readout. […] We, therefore, used HEK293T cells as EV-recipient cells upon transfecting them with an NF-kB-responsive promoter activating the luciferase reporter. To work with an experimental set up considering the post-transcriptional effects on the readout, we evaluated if the expression of the recombinant hnRNPA2B1 could induce secretion of EVs capable of activating NF-kB if further exposed to autologous cells. […] We, therefore, exploited this system to test compounds including some indication on the relevance of the EV-RNA cargo in mediating the luciferase activation in recipient cells. […] Next, we washed with PBS and incubated cells with serum-free media for additional 24 h to recover EVs. We exposed these EVs for 8 h to HEK293T cells previously seeded in 96-well plate and transfected with the luciferase reporter plasmid for 24 h. […]
Paracrine effect on NF-kB activation of EVs deriving from RBP-conditioned and treated cells. […] Firefly luminescence was normalized on cellular protein content at the end point on the corresponding sample. […]

NSC34 cells [3] = test: Cell viability dose response, NSC34; type: cell-based, mouse; details: NSC34, 24 hr
Protocol: as §2

NSC34 cells [4] = test: Nanodrop quantification of total intracellular RNA after treatment; type: cell-based, mouse; details: 6 h treatment
Protocol: RNA from cells was extracted using TRI Reagent® ([…], Sigma) following the manufacturer's instructions. Thermo Fisher Nanodrop 2000 Spectrophotometer was used to assess the purity and quantity of extracted RNA. RNA from EVs was extracted using Single Cell RNA Isolation Kit (51800, Norgen) following the manufacturer's protocol. The elution was in 10-20 μl of RNase-free water and the RNA profiling and quantification was assessed by Agilent 2100 Bioanalyzer and RNA 6000 Pico Kit (5067-1513). Cell- and EV-RNAs were also analysed with DNF-472 HS RNA (15 nt) Kit (Agilent Technologies, Santa Clara, CA), according to the manufacturer. Briefly, 2 μl of RNA samples concentrated within a range of 50-5000 pg/μl and RNA Ladder were added to Diluent Marker, denatured at 70°C for 2 min and loaded. Results were analysed with Agilent ProSize data analysis software, that allows the analysis of RNA size, concentration and quality. Through a Peak Analysis it was possible to access the concentration of each peak recognized by the software. Half a nanogram of extracted RNA from cells and EVs was used as input for complementary DNA (cDNA) synthesis. cDNA was produced using TaqManTM Advanced miRNA cDNA Synthesis Kit (Applied BiosystemsTM, A28007) following manufacturers' instructions and used for droplet digital polymerase chain reaction (PCR) experiments.

EXO-motif RNA = test: Fluorescence indicator displacement (FID) melting curve, EXO-motif RNA; type: binding; details: 5 μM RNA, 25 μM compound, Midori green
Protocol: as §1

IC50 [1]: ~0.1 µM and 0.0999 µM | thermal shift of the EXO-motif RNA (EXO-motif RNA): 9.5 °C
SMILES: O=C1C=C2CC3(O)COc4c(ccc(O)c4O)C3=C2C=C1O (stereo not shown) [H, hematein]
absorbance shifts, 300-400 nm (EXO-motif RNA probe): absorbance shifts | concentration of drop of viability (HEK293T cells): over 10 µM | IC50 (HEK293T cells; Homo sapiens, HEK-293T): ~41 µM | percentage of bound targets (miR-221, miR-1910) [2]: significantly reduced | EV-mediated, hnRNPA2B1-induced NF-kB activation (NF-kB): significantly counteracted | IC50 (NSC34 cells [3]; Mus musculus, NSC-34): ~78 µM | concentration of drop of viability (NSC34 cells [3]): over 10 µM | accumulation of intracellular RNAs (NSC34 cells [4]): significantly higher
